Reference: patent publication US4469689A, “Sulfonate containing ester prodrugs of corticosteroids” (The Upjohn Company, priority 1983, dated 1984)
Where a name gives a salt, the structure may show the parent alone.

Experiments:
mice = settings: M. Kawamura et al., Yakugaku Zasshi, 91, 871 (1971); cited from earlier work
[1] = base catalyzed hydrolysis rate in concentrated versus dilute solution; assay type: physicochemical; settings: 0.267 M vs 5×10^-4 M
From the text: The actual shelf-life of formulations of the above compounds would be expected to differ fom the above estimates for two reasons: (1) The solubility of the parent corticosteroid formed on hydrolysis may be exceeded prior to 10% degradation of the ester. Micelle formation by the intact prodrugs of Formula I results in solubilization of free corticosteroid thereby prolonging shelf-life. The degree of solubilization varies with the ester concentration, nature of the pro-moiety, and the structure of the corticosteroid. (2) Micelle formation by the intact prodrug in concentrated solutions results in stabilization of the ester linkage toward base catalyzed hydrolysis. For example, the base catalyzed hydrolysis rate in a 0.267 M solution of the compound of Example 1 is less than one-seventh the rate in a 5×10^-4 M solution.

[2] = hydrolysis of dilute aqueous solutions, t90% estimated from hydrolysis rate constants at 25° C. (Table I); assay type: physicochemical; settings: pH 4.75 (pH of optimum stability), dilute aqueous solution
Experimental: From the hydrolysis rate constants determined at 25° C. at various pH vlaues for dilute aqueous solutions of the compounds of the invention, estimates of t90% (time for 10% hydrolysis) may be calculated.

[3] = background statement; cited from earlier work

## C[C@]12CCC(=O)C=C1CC[C@@H]1[C@@H]2[C@@H](O)C[C@@]2(C)[C@H]1CC[C@]2(O)C(=O)COS(=O)(=O)O [21-sulfate of hydrocortisone]
mice
  activity in mice: inactive

## C[C@H]1C[C@@H]2[C@H]([C@@H](O)C[C@@]3(C)[C@H]2CC[C@]3(O)C(=O)COC(=O)CCCCCS(=O)(=O)O)[C@@]2(C)C=CC(=O)C=C12 [Example 1, 6α-Methylprednisolone, 21-(6-sulfohexanoate), sodium salt]
[1]
  base catalyzed hydrolysis rate in a 0.267 M solution relative to the rate in a 5×10^-4 M solution: less than one-seventh
[2]
  t90% (time for 10% hydrolysis): 2.7 years

## C[C@H]1C[C@@H]2[C@H]([C@@H](O)C[C@@]3(C)[C@H]2CC[C@]3(O)C(=O)COC(=O)CCCCCCCCCCS(=O)(=O)O)[C@@]2(C)C=CC(=O)C=C12 [Example 2, 6α-Methylprednisolone, 21-(11-sulfohendecanoate), sodium salt]
[2]
  t90% (time for 10% hydrolysis): 3.0 years

## C[C@]12C=CC(=O)C=C1CC[C@@H]1[C@@H]2C(=O)C[C@@]2(C)[C@H]1CC[C@]2(O)C(=O)CO [prednisone]
[3]
  water solubility: generally poorly water soluble
